Laboratory results published in PubChem BioAssay (NCI).
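Tested at 5 concentrations; 48 h exposure; 96-well plates; endpoints linearly interpolated, else capped at highest concentration. The concentration for 50% growth inhibition is given as GI50. At the TGI there is no net growth.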

Assays:
Assay in all cases: inhibition of tumour cell growth, NCI panel, 48 h
BT-549 breast = system: BT-549 breast
PC-3 prostate = system: PC-3 prostate
MDA-MB-231 breast = system: MDA-MB-231 breast
DU-145 prostate = system: DU-145 prostate
MDA-MB-435 = system: MDA-MB-435
RXF-631 renal = system: RXF-631 renal
T-47D breast = system: T-47D breast
MDA-N = system: MDA-N

Cn1cc(-c2nc(-c3c[nH]c4ccncc34)cs2)c2cc(F)ccc21
GI50 (BT-549 breast): 1.8 µM
TGI (BT-549 breast): 3.4 µM
GI50 (PC-3 prostate): 1.63 µM
TGI (PC-3 prostate): 3.17 µM
GI50 (MDA-MB-231 breast): 1.55 µM
TGI (MDA-MB-231 breast): 3.1 µM
GI50 (DU-145 prostate): 1.71 µM
TGI (DU-145 prostate): 3.14 µM
GI50 (MDA-MB-435): 1.64 µM
TGI (MDA-MB-435): 3.06 µM

Nc1nn(CC(O)CO)c(=O)s1 (configuration not stated)
TGI (RXF-631 renal): > 100 µM

CCOC(=O)C1=NN(c2ccc(Cl)cc2)C2=CC(C)=NN(C)C(=S)N21
TGI (T-47D breast): 94.8 µM
TGI (PC-3 prostate): > 100 µM
TGI (MDA-MB-231 breast): > 100 µM
TGI (MDA-N): > 100 µM
TGI (DU-145 prostate): > 100 µM
TGI (MDA-MB-435): > 100 µM
